In brackets after ≈: the same amount, converted by molar mass.
Key:
Plasmodium falciparum [1] = test: Antimalarial activity against chloroquine-sensitive Plasmodium falciparum D6; type: functional, organism-based
Plasmodium falciparum [2] = test: Antimalarial activity against chloroquine-resistant Plasmodium falciparum W2; type: functional, organism-based
[3] = Cytotoxicity against human vinblastine-resistant KBVIN cells in presence of vinblastine; type: functional, cell-based

C[C@@H]1CC[C@H]2[C@@H](CC#N)C(=O)O[C@@H]3O[C@@]4(C)CC[C@@H]1[C@]32OO4
IC50 (Plasmodium falciparum [1]): 18.4 ng/mL (≈ 0.0599 µM) | IC50 (Plasmodium falciparum [2]): 8.4 ng/mL (≈ 0.0273 µM)

COC(=O)C[C@H]1C(=O)O[C@@H]2O[C@@]3(C)CC[C@H]4[C@H](C)CC[C@@H]1[C@@]24OO3
IC50 (Plasmodium falciparum [1]): 46 ng/mL (≈ 0.135 µM) | IC50 (Plasmodium falciparum [2]): 33 ng/mL (≈ 0.097 µM)

CC(=O)O[C@@H]1C[C@H]2[C@H](C)CC[C@H]3[C@@H](C)C(=O)O[C@@H]4O[C@]1(C)OO[C@]423
IC50 (Plasmodium falciparum [1]): 11.1 ng/mL (≈ 0.0326 µM) | IC50 (Plasmodium falciparum [2]): 2.07 ng/mL (≈ 0.00608 µM)

COC[C@H]1C(=O)O[C@@H]2O[C@@]3(C)CC[C@H]4[C@H](C)CC[C@@H]1[C@@]24OO3
IC50 (Plasmodium falciparum [1]): 75 ng/mL (≈ 0.24 µM) | IC50 (Plasmodium falciparum [2]): 59 ng/mL (≈ 0.189 µM)

C[C@@H]1CC[C@H]2C(=C3CC3)C(=O)O[C@@H]3O[C@@]4(C)CC[C@@H]1[C@]32OO4
IC50 (Plasmodium falciparum [1]): 6.2 ng/mL (≈ 0.0202 µM) | IC50 (Plasmodium falciparum [2]): 4.3 ng/mL (≈ 0.014 µM)

C[C@@H]1CC[C@H]2[C@@H](CC[N+](=O)[O-])C(=O)O[C@@H]3O[C@@]4(C)CC[C@@H]1[C@]32OO4
IC50 (Plasmodium falciparum [1]): 0.68 ng/mL (≈ 0.00199 µM) | IC50 [3]: 5.1 ng/mL | IC50 (Plasmodium falciparum [2]): 0.26 ng/mL (≈ 0.000762 µM)

CCS(=O)(=O)C[C@H]1C(=O)O[C@@H]2O[C@@]3(C)CC[C@H]4[C@H](C)CC[C@@H]1[C@@]24OO3
IC50 (Plasmodium falciparum [1]): > 500 ng/mL | IC50 (Plasmodium falciparum [2]): > 500 ng/mL

C[C@@H]1CC[C@H]2[C@@H](C)C(=O)O[C@@H]3O[C@@]4(C)CC[C@@H]1[C@]32OO4 [ARTEMISININ]
IC50 (Plasmodium falciparum [2]): 0.2 ng/mL (≈ 0.000708 µM)

OC(c1cc(C(F)(F)F)nc2c(C(F)(F)F)cccc12)C1CCCCN1 (centres undefined) [MEFLOQUINE]
IC50 (Plasmodium falciparum [2]): 3.6 ng/mL (≈ 0.00952 µM)

C=C[C@H]1CN2CC[C@H]1C[C@H]2[C@H](O)c1ccnc2ccc(OC)cc12 [QUININE]
IC50 (Plasmodium falciparum [1]): 19.6 ng/mL (≈ 0.0604 µM) | IC50 (Plasmodium falciparum [2]): 102 ng/mL (≈ 0.314 µM)

Source: ChEMBL document CHEMBL1156341, “Synthesis of new artemisinin analogues from artemisinic acid modified at C-3 and C-13 and their antimalarial activity” (J Nat Prod, 2001)
